# US6541463B1, “Inhibitors of type 5 and type 3 17β-hydroxysteroid dehydrogenase and methods for their use” (Endorecherche, Inc., priority 1998, dated 2003)
# Tests used:
# [1] = system: Shionogi mouse mammary carcinoma cells; assay: Antiandrogenic activity: inhibition of DHT-induced proliferation of Shionogi cells; format: cell-based; details: Table 4′, DHT-induced proliferation
# Method: The manner in which the inhibition is determined is described in “Other Tests; B-Androgenic/Antiandrogenic Activity”. Lower numbers are desirable. ND means that a determination was not done.
# (§1) Androgenic/antiandrogenic activity of some preferred compounds has been measured using the Shionogi mouse mammary carcinoma cells.
# (§2) Minimal essential culture medium (MEM), non-essential amino acids, and fetal calf serum were purchased from Flow Laboratories. In order to remove endogenous steroids, serum was incubated overnight at 4° C. with 1% activated charcoal (Norit A, Fisher) and 0.1% Dextran T-70 (Pharmacia). A 2-h supplementary adsorption was performed at 25° C. in order to further remove protein-bound steroids. Serum was also inactivated by a 20-min incubation at 56° C.
# (§3) 5α-dihydrotestosterone (DHT) was obtained from Steraloids. The antiandrogen hydroxyflutamide (OH-FLU) was kindly supplied by Drs. T. L. Nagabuschan and R. Neri (Schering Corporation, Kenilworth, U.S.A.).
# (§4) Shionogi male mice bearing androgen-sensitive mammary tumors were obtained from Drs. Keishi Matsumoto, Osaka, Japan, and Yvonne Lefebvre, Ottawa, Canada. For primary culture, tumors were excised and washed in ice-cold sterile 25 mM Hepes buffer (137 mM NaCl; 5 mM KCl; 0.7 mM Na2HPO4; 10 mM glucose, pH 7.2). After mincing with scissors, the tumor minces were digested for 2 h at 37° C. in Hepes buffer containing 3.8 mg/ml collagenase (Clostridium, Boehringer), 1.5 mg/ml hyaluronidase II (Sigma), and 3% bovine serum albumin fraction V (Schwartz-Mann). Dispersed cells were collected by centrifugation (500×g for 10 min), washed twice by suspension in minimal essential medium (MEM) containing 5% dextran-coated charcoal-treated fetal calf serum (DCC-FCS), 1% non-essential amino acids, 10 IU/ml penicillin, 50 μg/ml streptomycin, and 100 nM dihydrotestosterone (DHT) (Steraloids).
# (§5) Cells were plated in the same medium at a density of 75 000 cells/ml in 75 cm^2 flasks under an atmosphere of 5% carbon dioxide in air at 37° C. The medium was changed weekly. The steroids and antisteroids were dissolved in ethanol and kept in stock solutions chosen to yield final ethanol concentrations less than 0.01% in the culture medium.
# (§6) Cells were subcultured at near-confidence by gentle digestion in a solution of 0.1% pancreatin (Flow Laboratories) in Hepes buffer containing 3 mM ethylenediaminetetraacetic acid (EDTA) (pH 7.2). Cells were pelleted by centrifugation, resuspended in culture medium, counted in a Coulter counter, and replated as described above. Soft agar cloning was performed as described (Stanley et al., Cell 10: 35-44, 1977) in the presence of 100 nM DHT.
# (§7) Cells were plated in 24-well plates at a density of 20 000 cells/well. The indicated increasing concentrations of agents were added to triplicate dishes, and cells were grown for 10-12 days with changes of medium every 3-4 days. Cell number was measured by direct counting in a Coulter counter.
# (§8) ED50 values of action of DHT and glucocorticoids were calculated according to a least-square regression as described (Rodbard, Endocrinology 94: 1427-1431, 1974). Statistical significance was calculated according to a multiple-range test (Kramer, Biometrics 12: 307-310,1956).
# [2] = system: Shionogi mouse mammary carcinoma cells; assay: Androgenic activity: stimulation of proliferation of Shionogi cells; format: cell-based; details: Table 4′
# Method: In column 9, the androgenic activity of preferred type 5 inhibitors expressed as the percentage of stimulation of proliferation of Shionogi cells at concentrations of 10^−7 M (left number) and 10^−6 M (right number) of inhibitor. The manner in which the stimulation is determined is described in “Other Tests; B-Androgenic/Antiandrogenic Activity”. Lower numbers are desirable. ND means that a determination was not done.
# as §1, §2, §3, §4, §5, §6, §7, §8
# [3] = biological target: T1, human type 2 17β-hydroxysteroid dehydrogenase (Homo sapiens, UniProt P37059); assay: Enzymatic assay for type 2 17β-HSD; format: biochemical; details: Table 4′; bracketed values, 3 · 10^−8M
# T1 construct: expressed in transfected cells; host or cells: 293 cells, transient transfection; microsomal fraction (100 000×g pellet)
# T1 sequence (P37059 1-387): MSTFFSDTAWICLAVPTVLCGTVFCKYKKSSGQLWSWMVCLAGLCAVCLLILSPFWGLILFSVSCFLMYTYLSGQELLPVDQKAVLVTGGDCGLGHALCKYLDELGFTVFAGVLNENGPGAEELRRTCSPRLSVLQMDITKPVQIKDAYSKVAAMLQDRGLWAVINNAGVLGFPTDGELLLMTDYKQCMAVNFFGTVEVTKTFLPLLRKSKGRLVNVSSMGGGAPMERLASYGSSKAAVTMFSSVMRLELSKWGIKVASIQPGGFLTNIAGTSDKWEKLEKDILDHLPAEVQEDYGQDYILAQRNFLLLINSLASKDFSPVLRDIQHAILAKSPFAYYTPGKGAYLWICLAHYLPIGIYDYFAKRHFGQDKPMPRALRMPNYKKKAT
# Method: The manner in which IC50 was determined is described in “Efficacy of Preferred Inhibitors: VI. Enzymatic assay for types 1, 2, and 3 17β-HSD and types 1 and 3 3α-HSD”. […] numbers of IC50 are desirable. Blank means that a determination was not done. […]
# Enzyme sources. 293 cells transiently transfected with expression vectors encoding types 1, 2 and 3 17β-HSD (Luu-The et al., J. Steroid Biochem. Molec. Biol., 55: 581-587, 1995), types 1 and 2 5α-reductase (Luu-The et al., J. Invest. Dermatol., 102: 221-226, 1994) and types 1 and 3 3α-HSD (Dufort et al. Biochem. Biophys. Res. Commun. 228: 474-479, 1996), using the calcium phosphate procedure (Kingston et al., In: Current Protocols in Molecular Biology. Edited by E. M. Ausbel, R. Brent, R. E. Kingston, D. D. Moore, J. G. Seidman, J. A. Smith, K. Struhl. John Wiley & Sons, New York, pp. 9.1.1-9.1.9, 1991; Luu-The et al., J. Invest. Dermatol., 102: 221-226, 1994). For assays using cell subfractions, cells were sonicated in 50 mM sodium phosphate buffer (pH 7.4), containing 20% glycerol and 1 mM EDTA and centrifuged at 10 000×g for 30 min before centrifugation for 100 000×g for 1 h to separate the mitochondrial and microsomal fractions, respectively. The cytosol fractions (100 000×g supernatant) was used to determine type 1 activity while the microsomal fraction (pellet at 100 000×g) was used for measurement of types 2 and 3 17β-HSD activities.
# Incubation. The enzymatic reaction was carried out at 37° C. in 1 ml of 50 mM sodium phosphate buffer, pH 7.4, containing 20% glycerol, 1 mM EDTA, and 2 mM cofactors (NADPH or AND^+) for 1 h in the presence of 0.1 μM ^14C-labeled substrate: estrone and 4-dione for types 1 and […] 17β-HSD, respectively, testosterone for type 2 17β-HSD as well as types 1 and 2 5α-reductases, DHT for types 1 and 3 3α-HSD activities, and the indicated concentration of inhibitor.
# Extraction of metabolites, migration on TLC and quantification were as described above for the assay of type 5 17β-HSD.
compound,measurement,setting,value
"CCC1(CC)CC[C@@]2(CC[C@H]3[C@@H]4CCc5cc(OC)ccc5[C@H]4CC[C@@]32C)OC1=O [EM-1419, 3-Methoxy-1,3,5(10)-estratrien-17(R)-spiro-2′-(5′,5′-diethyl-6′-oxo)tetrahydropyran]","Antiandrogenic Activity Shionogi, DHT E^−6",[1]; E^−6 (10^−6 M),−64%
same,"Antiandrogenic Activity Shionogi, DHT E^−7",[1]; E^−7,2%
same,"Androgenic Activity Shionogi, Basal E^−6",[2]; E^−6,−29%
same,"Androgenic Activity Shionogi, Basal E^−7",[2]; E^−7,16%
same,Inhibition Type 2 17β-HSD Activity [% Inh. at 3 · 10^−8M],[3],[74] %
